Results published in patent US20110275709A1, “TELLURIUM-CONTAINING COMPOUNDS FOR AFFECTING MALE'S FERTILITY FOLLOWING CHEMOTHERAPY AND/OR RADIOTHERAPY” (BIOMAS LTD., priority 2009, published 2011).
Entries after “also recorded” stand apart in the source; their conditions may differ. Like-named read-outs stand apart in the source and are kept apart here. Marks after values point to notes of the source that are not given here.

Legend:
[1] = system: mice; details: cited from earlier work
[2] = system: phosphorylated Akt (pAkt); format: in vivo, mice; details: relative to the PBS group; testes homogenate, densitometry; FIGS. 12A-B
Description: (§1) Frozen testes were homogenized in 1 ml of RIPA lysis buffer containing protease inhibitor cocktail and phosphatase inhibitor cocktail II. The tissue was then pulverized with a Dounce homogenizer and the homogenate subjected to centrifugation at 14,000 g for 15 minutes. The supernatant was collected and used for protein determination using Bradford reagent. Tissue samples were denatured in reducing buffer (62 mM Tris [pH 6.8], 10% glycerol, 2% sodium dodecyl sulfate [SDS], 5% f3-mercaptoethanol and 0.003% bromophenol blue) and separated by electrophoresis on an SDS (12%) polyacrylamide gel at 35 mA. The separated proteins were transferred onto a nitrocellulose membrane using the transfer buffer (39 mM glycine, 48 mM Tris [pH 8.3] and 20% methanol) at 20 V at 4° C. overnight. The membranes were stained with Ponceau S (0.005% in 1% acetic acid) to confirm equal amounts of protein, and blocked with 5% non-fat dry milk in Tris buffered saline with 0.1% TWEEN (TBS-T) for 1 hour at room temperature, and washed three times for 10 minutes each time in TBS-T. The following primary rabbit monoclonal antibodies were used: anti-human phospho-Akt1/2/3, anti-human GSK-3β and anti-human phospho-GSK-3β. Mouse antibody against chicken α-tubulin was used in order to confirm that the protein load was similar in all lanes. Membranes were incubated with the appropriate diluted antibody overnight at 4° C. After being washed three times for 10 minutes each time in TBS-T, the membranes were incubated for 1 hour at room temperature with peroxidase-conjugated goat anti-rabbit or goat anti-mouse IgG antibody. After washing, the membranes were analyzed by an enhanced chemiluminescence system according to the manufacturer's protocol (Pierce). Densitometry was conducted in order to quantify differences in band intensity using the Image J image-processing program (NIH, Bethesda, Md., USA). Results were normalized by comparison to the values in the PBS control group in each membrane.
(§2) Phosphorylation of Akt and GSK-3β was determined using gel electrophoresis and Western blotting, as described in the Materials and Methods section.

[3] = system: phosphorylated GSK-3β (pGSK-3β); format: in vivo, mice; details: of the PBS group; testes homogenate, densitometry; FIGS. 13A-B
Description: as §1, §2

[4] = system: Balb/c male mice; details: Cy 200 mg/kg ip once a week for 5 weeks; for Body weight / Epididymis weight / Epididymis weight (normalized to body weight) / Testes weight / Testes weight (normalized to body weight) / Sperm concentration: AS101 10 μg/mouse ip every other day; for Body weight / Epididymis weight / Epididymis weight (normalized to body weight) / Testes weight / Testes weight (normalized to body weight): sacrificed 5 weeks after last injection; for Sperm concentration: epididymal sperm
Description: In order to recover the motile epididymal spermatozoa, the two caudal epididymides were placed in M2 medium (Sigma), minced with fine scissors and incubated at 37° C. in an atmosphere of 95% air and 5% CO2 for 15 minutes prior to careful removal of all medium. Samples were then diluted to a final volume of 1 ml in M2. The concentration of sperm cells in the medium was then evaluated using a hemocytometer, and the samples were frozen at −80° C.
(§3) Ten mice were injected intraperitoneally (ip) with 200 mg/kg of cyclophosphamide (Cy) once a week for a period of 5 weeks (Cy group).
(§4) Another ten mice (Cy+AS101 group) were co-treated with Cy as described for the Cy group and with i.p. injections of AS101 at a dosage of 10 μg/mouse every other day, starting 1 week before the first Cy injection and continuing during the 5 weeks of Cy treatment.
(§5) An additional group of ten mice were injected with PBS only (PBS group), and another ten mice were treated with i.p. injections of AS101 at a dosage of 10 μg/mouse every other day (AS101 group), as described for the Cy+AS101 group. The animals from all groups were sacrificed 5 weeks after the last injection by cervical dislocation, and body weights were determined; thereafter, epididymides and testes were quickly dissected out, weighed and fixed.
Body weight, testes weight, testes weight normalized to body weight, epididymis weight, epididymis weight normalized to body weight, and sperm concentration were determined for the mice of each of the 4 treatment groups.

[5] = system: Balb/c male mice; assay: Effect of treatments on testicular weight (procarbazine-induced testicular damage); format: in vivo; details: AS101 10 μg/mouse ip every other day, FIG. 3
Source text: Inbred Balb/c male mice, aged 5-6 weeks, were used. To ensure the fertility of the mice, each mouse was placed with two young healthy females.
(§6) The administration protocols for the four groups are depicted in FIG. 1.
Weights were normalized to the weight of the mouse. Each group contained 10 mice.

[6] = system: Balb/c male mice; format: in vivo; details: Cy 200 mg/kg ip weekly for 5 weeks, AS101 10 μg/mouse ip every other day; for testicular histology (seminiferous tubules, cross sections): FIGS. 7A-7D
Description: (§7) The removed testes were pierced with a needle and fixed in Bouin's fixative. After 24 hours, testes were washed three times and maintained in 70% ethanol. Samples were then embedded in paraffin and sectioned. Tissue sections (5 μm) were then stained using hematoxylin/eosin and examined randomly under a light microscope (AX70, Olympus, Tokyo, Japan) under ×100 magnification.
as §3, §4, §5

[7] = system: tumor models in mice and humans; details: cited from earlier work
[8] = system: cancer patients; details: AS101 in combination with chemotherapy; cited from earlier work
[9] = system: Balb/c male mice; format: in vivo; details: females mated with treated males, Cy 200 mg/kg ip weekly for 5 weeks
Description: (§8) Fertility assays were performed on the “chemotherapy only” group, “chemotherapy+AS101” group, and control (PBS) group. Each male was placed with three young virgin females, aged 6 weeks. These females were examined daily for vaginal plugs. Once mating was documented, females were separated, and the pregnancies allowed to progress. […] The number of pregnant females and litter size was noted.
as §3, §4, §5

[10] = system: sperm nuclear DNA; format: in vivo, mice; details: Cy 200 mg/kg ip weekly for 5 weeks; AS101 10 μg/mouse ip every other day; FIG. 9
Description: as §3, §4, §5

[11] = system: Balb/c male mice; assay: Histological evaluation of testicular damage (procarbazine); format: in vivo; details: three weekly injections of 200 mg/kg PCB; 5 mice per group; FIGS. 2A-2C
Description: as §7, §6
(§9) Each group contained 5 mice.

[12] = system: Balb/c male mice; assay: Evaluation of male fertility (procarbazine); format: in vivo; details: females mated with treated males, PCB single dose 200 mg/kg
Description: as §8
Each group contained 5 male mice.

[13] = system: testicular cells; assay: Analysis of testicular damage by DNA flow cytometry (procarbazine); format: in vivo; details: PCB single dose 200 mg/kg; propidium iodide flow cytometry; 5 mice per group; FIG. 6
Description: Quantification of DNA content in testicular cell populations by propidium iodide staining followed by flow cytometry is an objective, rapid, and robust method for the analysis spermatogenic damage. The method provides quantitative values for evaluating the changes in the proportion in the number of 1N (mature and immature haploid), 2N (diploid), and 4N (tetraploid) cells in the testis. The method was performed as previously described (Malkov at al., 1998). Briefly, testes were dissected, decapsulated, and the contents of the testes were transferred into a tube containing 5 ml ice-cold separation medium. Then, a collagenase solution was added and incubation was carried out for 5 minutes at 37° C. under vigorous shaking. The seminiferous cords were allowed to sediment to the bottom of the tube while being incubated on ice. The seminiferous cords were washed twice in 10 ml separation medium, re-suspended in separation medium containing 2.5 mg/ml trypsin and 1U/ml DNase I, incubated for 2 minutes at 37° C., and transferred to ice. Using a Pasteur pipette, the seminiferous cords was disintegrated into single cells and were then filtered through a […] nylon mesh, washed twice with separation medium (centrifugation at 200-300 g), and counted. For FACS analysis, testicular cells were brought to a concentration of 2-3×10^6 cells/ml in separation medium and diluted 1:1 with propidium iodide solution (10 mM Tris pH 8, 1 mM NaCl, 0.1% Nonidet P-40, 0.7 mg/ml Rnase A, and 0.05 mg/ml propidium iodide). Cells were analyzed by a Becton-Dickinson (San Francisco, Calif.) FACSort instrument, equipped with an argon laser, within 2 hours from staining. Excitation was at 488 nm and emission at 585 nm. The parameters measured for each cell were forward scatter (FSC-H), side scatter (SSC-H), and total fluorescence emitted from the cell (FL2-A).
as §9

Structure (SMILES) | average level of phosphorylated Akt (pAkt) [2] [%] | level of phosphorylated GSK-3β (pGSK-3β) [3] [%] | Body weight [4] [gram] | Epididymis weight [4] [mg] | Epididymis weight (normalized to body weight) [4] [mg/gram body weight] | Testes weight [4] [mg] | Testes weight (normalized to body weight) [4] [mg/gram body weight] | Sperm concentration [4] | testicular histology (seminiferous tubules, cross sections) [6] | further results
Cl[TeH]1(Cl)(Cl)OCCO1.N [AS101, ammonium trichloro(dioxyethylene-O,O′)tellurate] | 175.3±28.4 | 130.3±16.9 | 26.2 ± 1.0 | 34.2 ± 4.2 | 1.3 ± 0.1 | 105.7 ± 14.7 | 4.3 ± 0.3 | 22.5 ± 3.8 10^6 cells/ml | normal cellular content; also recorded: no effect on testicular histology | protection from hematopoietic damage ([1]; lethal and sublethal doses of chemotherapeutic drugs, including cyclophosphamide): protect mice from hematopoietic damage; survival of mice ([1]; mice treated with various cytotoxic drugs or radiation): increase the survival of mice; effect of AS101 alone on testicular weight ([5]; no PCB): no significant effect; combination effect with Cy ([7]; treatment of tumor-bearing mice): synergistic effect with Cy; anti-tumoral effect ([7]; variety of tumor models in mice and humans): clear anti-tumoral effect; severity of neutropenia, thrombocytopenia and alopecia that accompany chemotherapy [8]: significant reduction in the severity of neutropenia, thrombocytopenia, and alopecia
O=P1(N(CCCl)CCCl)NCCCO1 (stereo not drawn) [Cy, cyclophosphamide] | 55.3±25.6 | 36.4±12.5 | 22.8 ± 2.1 | 25.1 ± 2.9 | 1.1 ± 0.1 | 46.3 ± 8.7 | 1.98 ± 0.16 | 8.7 ± 1.6* 10^6 cells/ml | empty and atrophic seminiferous tubules | deaths [4]: no deaths occurred; percentage of impregnated females ([9]; FIG. 10): 20.0±4.2%; litter size of females which did achieve pregnancy ([9]; FIG. 11): 4.3±1.4; average percentage of damaged seminiferous tubules ([6]; FIG. 8): 76.0±10.8%; percentage of sperm cells with abnormal chromatin structure (% DFI) [10]: 44.7±1.0%
CNNCc1ccc(C(=O)NC(C)C)cc1 [PCB, Procarbazine] |  |  |  |  |  |  |  |  |  | testicular histology (hematoxylin/eosin sections) [11]: empty and atrophic seminiferous tubules; average testicular weight ([5]; PCB single dose 200 mg/kg, normalized to mouse weight, 10 mice per group): 1.9±0.2 mg per grams body weight; litter size ([12]; 5 male mice per group, FIG. 4): 1.4±2.9; percentage of impregnated females ([12]; FIG. 5): 20%; percentage of cells with 1N (haploid) DNA in the testes [13]: 24.2±4.0%; percentage of cells with 2N (diploid) DNA in the testes [13]: 54.9±4.2%; percentage of cells with 4N (tetraploid) DNA in the testes [13]: 4.7±0.4%
